Results on one compound are retold here after patent US11918552B2, “N-acetylcysteine for use as antibacterial agent” (priority 2016, dated 2024).

Molecules are shown by their SMILES. ≈ marks a conversion by molar mass, not a printed value.

In general, MIC refers to the lowest concentration that inhibits growth of the organism. Low values mean a more susceptible organism, high ones a less susceptible organism.

The test system of one assay is BCC biofilm. As to the kind of experiment: Inhibition of biofilm formation, MBEC High-Throughput Assay, viable cell count. The assay is classed as cell-based, Burkholderia cepacia complex. Particulars: NAC 4, 8 and 16 mg/ml, two BCC isolates.
Assay [1] has as its system S. maltophilia isolates. Nature of the assay: Time-kill assay. Particulars: NAC 32 mg/ml. It is filed as cell-based, Stenotrophomonas maltophilia.
The test system of assay [2] is S. maltophilia clinical isolates. Nature of the assay: MIC by broth microdilution. The assay is classed as cell-based. Particulars: Stenotrophomonas maltophilia. A general note: Broth dilution looks for growth in wells or tubes with falling amounts of substance.
The subject of assay [3] is BCC isolates. As to the kind of experiment: Time-kill assay. Particulars: NAC 32 mg/ml. It is filed as cell-based, Burkholderia cepacia complex.
Assay [4] deals with S. maltophilia isolates. As to the kind of experiment: Effect of sub-MIC concentrations on growth curves. It is filed as cell-based, Stenotrophomonas maltophilia. Particulars: sub-MIC concentrations (4 and 8 mg/ml), all 4 tested S. maltophilia isolates.
Assay [5] deals with BCC isolates. As to the kind of experiment: Effect of sub-MIC concentrations on growth curves. Particulars: sub-MIC concentrations (4 and 8 mg/ml), all 4 tested BCC isolates. The assay is classed as cell-based, Burkholderia cepacia complex.
The test system of assay [6] is BCC (B. cepacia, B. cenocepacia, B. multivorans, B. metallica, B. seminalis, B. stabilis) clinical isolates. As to the kind of experiment: organism not typed. The assay is classed as cell-based, Burkholderia cepacia complex.
A further assay deals with S. maltophilia biofilm. Nature of the assay: Inhibition of biofilm formation, MBEC High-Throughput Assay, viable cell count. The assay is classed as cell-based, Stenotrophomonas maltophilia. To be noted: NAC 4, 8 and 16 mg/ml, all S. maltophilia isolates.

`CC(=O)N[C@@H](CS)C(=O)O` [NAC, N-acetylcysteine]: the “Inhibition of biofilm formation” value in the assay with BCC biofilm and in the assay with S. maltophilia biofilm was “inhibit biofilm formation in a dose-dependent fashion” throughout. The “Reduction of bacterial inoculum (bactericidal)” value in the assay on S. maltophilia isolates [1] (one S. maltophilia isolate) and with BCC isolates [3] (one BCC isolate) was “more than 3 logs” in each case. The “Reduction of bacterial inoculum” value in the assay with S. maltophilia isolates [1] (remaining S. maltophilia isolates) and with BCC isolates [3] (remaining BCC isolates) was less than 1 log CFU/ml each time. Besides, the MIC in assay [2] (nine of 16 S. maltophilia clinical isolates) is 16 mg/mL (≈ 98 mM); in assay [2] (remaining S. maltophilia isolates (of 16)), 32 mg/mL (≈ 196 mM); in assay [6] (remaining BCC isolates (of 16)) it was 32 mg/mL (≈ 196 mM); in assay [6] (seven of 16 BCC clinical isolates), 16 mg/mL (≈ 98 mM). Moreover, the Effect on growth result in the assay on S. maltophilia isolates [4] and in the assay on BCC isolates [5] was “slowed down the growth” in each case.
